Source: PMC7126937 (Bioorganic & Medicinal Chemistry, 2014)
“And” between values parts separate entries of the source, which are not always exact repeats. Equal values may be shown once.

These molecules were tested on influenza virus A/California/7/09 (H1N1)pdm09.
Type: cell-based, influenza virus A/California/07/09 (H1N1)pdm09

| Structure (SMILES) | ED50 (50% effective concentration; the concentration leading to 50% inhibition of virus replication) |
| --- | --- |
| NC12CC3CC(CC(C3)C1)C2 [Amantadine, 1-aminoadamantane, reference compound] | 64.2 ± 4.7 µM |
| CC1(C)C2CC[C@@]1(C)C(=O)C2 [Compound 1, (1R)-(+)-camphor, reference compound] | 1644.7 ± 144.4 µM |
| CC1(C)[C@@H]2CC[C@@]1(C)/C(=N/CCC/N=C1\C[C@H]3CC[C@]1(C)C3(C)C)C2 [Compound 2a, N^1E,N^3E-N^1,N^3-bis((1R,2R,4R)-1,7,7-trimethylbicyclo[2.2.1]heptan-2-ylidene)propane-1,3-diamine] | 9.3 ± 0.8 µM |
| CC1(C)[C@@H]2CC[C@@]1(C)/C(=N/CCCCCC/N=C1\C[C@H]3CC[C@]1(C)C3(C)C)C2 [Compound 2b, N^1E,N^6E-N^1,N^6-bis((1R,2R,4R)-1,7,7-trimethylbicyclo[2.2.1]heptan-2-ylidene)hexane-1,6-diamine] | 15.1 ± 1.1 µM |
| CC1(C)[C@@H]2CC[C@@]1(C)/C(=N/CCCCCCC/N=C1\C[C@H]3CC[C@]1(C)C3(C)C)C2 [Compound 2c, N^1E,N^7E-N^1,N^7-bis((1R,2R,4R)-1,7,7-trimethylbicyclo[2.2.1]heptan-2-ylidene)heptane-1,7-diamine] | 22.8 ± 2.3 µM |
| CC1(C)[C@@H]2CC[C@@]1(C)/C(=N/CCCCCCCC/N=C1\C[C@H]3CC[C@]1(C)C3(C)C)C2 [Compound 2d, N^1E,N^8E-N^1,N^8-bis((1R,2R,4R)-1,7,7-trimethylbicyclo[2.2.1]heptan-2-ylidene)octane-1,8-diamine] | 24.2 ± 2.1 µM |
| CC1(C)[C@@H]2CC[C@@]1(C)/C(=N/CCCCCCCCCCCC/N=C1\C[C@H]3CC[C@]1(C)C3(C)C)C2 [Compound 2e, N^1E,N^12E-N^1,N^12-bis((1R,2R,4R)-1,7,7-trimethylbicyclo[2.2.1]heptan-2-ylidene)dodecane-1,12-diamine] | 45.0 ± 3.9 µM |
| CC1(C)[C@@H]2CC[C@@]1(C)/C(=N/c1ccc(Cc3ccc(/N=C4\C[C@H]5CC[C@]4(C)C5(C)C)cc3)cc1)C2 [Compound 2f, (E)-N-((1R,2R,4R)-1,7,7-trimethylbicyclo[2.2.1]heptan-2-ylidene)-4-(4-((E)-((1R,2R,4R)-1,7,7-trimethylbicyclo[2.2.1]heptan-2-ylidene)amino)benzyl)aniline] | 351.4 ± 32.3 µM |
| CC1(C)[C@@H]2CC[C@@]1(C)/C(=N/c1ccc(Oc3ccc(/N=C4\C[C@H]5CC[C@]4(C)C5(C)C)cc3)cc1)C2 [Compound 2g, (E)-N-((1R,2R,4R)-1,7,7-trimethylbicyclo[2.2.1]heptan-2-ylidene)-4-(4-((E)-((1R,2R,4R)-1,7,7-trimethylbicyclo[2.2.1]heptan-2-ylidene)amino)phenoxy)aniline] | 373.4 ± 35.1 µM |
| CC1(C)[C@@H]2CC[C@@]1(C)[C@H](NCCCCCCN[C@@H]1C[C@H]3CC[C@]1(C)C3(C)C)C2 [Compound 3b, N^1,N^6-bis((1R,2R,4R)-1,7,7-trimethylbicyclo[2.2.1]heptan-2-yl)hexane-1,6-diamine] | 0.77 µM and 0.77 ± 0.1 µM |
| CC1(C)[C@@H]2CC[C@@]1(C)[C@H](NCCCCCCCN[C@@H]1C[C@H]3CC[C@]1(C)C3(C)C)C2 [Compound 3c, N^1,N^7-bis((1R,2R,4R)-1,7,7-trimethylbicyclo[2.2.1]heptan-2-yl)heptane-1,7-diamine] | 3.2 µM and 3.2 ± 0.2 µM |
| CC1(C)[C@@H]2CC[C@@]1(C)[C@H](NCCCCCCCCCCCCN[C@@H]1C[C@H]3CC[C@]1(C)C3(C)C)C2 [Compound 3e, N^1,N^12-bis((1R,2R,4R)-1,7,7-trimethylbicyclo[2.2.1]heptan-2-yl)dodecane-1,12-diamine] | 4.4 ± 0.3 µM |
| CC1(C)[C@@H]2CC[C@@]1(C)[C@H](Nc1ccc(Cc3ccc(N[C@@H]4C[C@H]5CC[C@]4(C)C5(C)C)cc3)cc1)C2 [Compound 3f, (1R,2R,4R)-1,7,7-trimethyl-N-(4-(4-((1R,2R,4R)-1,7,7-trimethylbicyclo[2.2.1]heptan-2-ylamino)benzyl)phenyl)bicyclo[2.2.1]heptan-2-amine] | 153.2 ± 11.9 µM |
| CC1(C)[C@@H]2CC[C@@]1(C)[C@H](Nc1ccc(Oc3ccc(N[C@@H]4C[C@H]5CC[C@]4(C)C5(C)C)cc3)cc1)C2 [Compound 3g, (1R,2R,4R)-1,7,7-trimethyl-N-(4-(4-((1R,2R,4R)-1,7,7-trimethylbicyclo[2.2.1]heptan-2-ylamino)phenoxy)phenyl)bicyclo[2.2.1]heptan-2-amine] | 207.6 ± 19.5 µM |
| CN(CCCCCCN(C)[C@@H]1C[C@H]2CC[C@]1(C)C2(C)C)[C@@H]1C[C@H]2CC[C@]1(C)C2(C)C [Compound 4b, N^1,N^6-dimethyl-N^1,N^6-bis((1R,2R,4R)-1,7,7-trimethylbicyclo[2.2.1]heptan-2-yl) hexane-1,6-diamine] | 110.1 ± 10.4 µM |
| CN(CCCCCCCN(C)[C@@H]1C[C@H]2CC[C@]1(C)C2(C)C)[C@@H]1C[C@H]2CC[C@]1(C)C2(C)C [Compound 4c, N^1,N^7-dimethyl-N^1,N^7-bis((1R,2R,4R)-1,7,7-trimethylbicyclo[2.2.1]heptan-2-yl)heptane-1,7-diamine] | 40.4 ± 3.8 µM |
| CC1(C)[C@@H]2CC[C@@]1(C)/C(=N/c1ccc(Cc3ccc(N)cc3)cc1)C2 [Compound 5f, (E)-4-(4-aminobenzyl)-N-((1R,2R,4R)-1,7,7-trimethylbicyclo[2.2.1]heptan-2-ylidene)aniline] | 15.0 ± 1.2 µM |
| CC1(C)[C@@H]2CC[C@@]1(C)/C(=N/c1ccc(Oc3ccc(N)cc3)cc1)C2 [Compound 5g, (E)-4-(4-aminophenoxy)-N-((1R,2R,4R)-1,7,7-trimethylbicyclo[2.2.1]heptan-2-ylidene)aniline] | 4.2 ± 0.0 µM |
| CC(N)C12CC3CC(CC(C3)C1)C2.Cl (stereo not drawn) [Rimantadine, α-methyl-1-adamantylamine hydrochloride, reference compound] | 67.0 ± 4.9 µM |
